For test [1], the system named is 6-FAM-CUG23 (RNA, repeat) CUGCUGCUGCUGCUGCUGCUGCUGCUGCUGCUGCUGCUGCUGCUGCUGCUGCUGCUGCUGCUGCUGCUG
The test is described as follows: fluorescence polarization. The following applies: 250 mM NaCl, 50 μM ZnCl2, 50 mM Tris-HCl pH 7.0, 10% glycerol, 1 mM DTT, on ice, RNA 6 nM. (In general: Polarisation of emitted light reports the rotation of a fluorescent probe.)

Test [2] deals with (CUG)12 RNA (CUGexp) (RNA, repeat) CUGCUGCUGCUGCUGCUGCUGCUGCUGCUGCUGCUG
The test is described as follows: direct fluorescence titration. The following applies: log K; fitted with HypSpec; buffer of the direct titration not stated separately.

Take `CC1Cc2c(N)nc(NCc3ccc(CNc4nc(N)c5c(n4)NC(=O)C(C)C5)cc3)nc2NC1=O` (stereo not shown): the binding entry in test [1] (saturated at 250 μM) is “yes”. As for `N=C(N)c1ccc(OCCCCCOc2ccc(C(=N)N)cc2)cc1`, the binding entry in test [1] (100 μM pentamidine positive control) was “yes”. `CC(=O)Nc1cccc(NC(=O)c2csc(NC(=O)c3ccc(Cl)cc3)n2)c1`: the binding entry in test [1] (pentamidine-like polarization at 37.5 μM) is “yes”.

In the case of `CN1C(=Cc2cc[n+](C)c3ccccc23)Sc2ccccc21`, the binding constant in test [2] is given as 6.5(1) logarithmic units.

The values are drawn from PMC5459475 (2017).
